Measurements as given in patent US9987286B2, “Compositions and methods for the treatment of addiction, psychiatric disorders, and neurodegenerative disease” (Embera NeuroTherapeutics, Inc., priority 2010, dated 2018).

Legend:
[1] = tested on: cocaine self-administration in rats; assay: Cocaine self-administration in rats, metyrapol (Example 5); format: in vivo, Adult male Wistar rats; conditions: metyrapol 25, 50, 100, 150 mg/kg ip 30 minutes before session; cocaine 0.125, 0.25 and 0.5 mg/kg/infusion
Description: (§1) We conducted the following experiment to explore the possibility that metyrapol would decrease cocaine self-administration in an animal model. Adult male Wistar rats were trained to respond under a 2-hour multiple, alternating schedule of food reinforcement and cocaine self-administration (fixed-ratio 4) during alternating 15-minute periods. Prior to testing, the rats were exposed to multiple saline substitution and food extinction probes. On test days, rats were pretreated 30 minutes prior to the start of the behavioral session with metyrapol (25, 50, 100, and 150 mg/kg, ip.) or vehicle. Subjects were initially trained and tested with 0.25 mg/kg/infusion of cocaine and, subsequently, with 0.125 and 0.5 mg/kg/infusion.

[2] = tested on: food-maintained responding in rats; assay: Food-maintained responding in rats, metyrapol (Example 5); format: in vivo, Adult male Wistar rats; conditions: metyrapol 25, 50, 100, 150 mg/kg ip
Description: as §1

[3] = tested on: cocaine self-administration in rats; assay: Ongoing cocaine self-administration in rats (earlier experiments); format: in vivo, rat; conditions: pretreatment with the single drug
Description: We then reduced the dose by one-half until we found a dose of each drug that no longer affected cocaine self-administration or any other observable behaviors (i.e., an ineffective dose). When we then combined the ineffective doses of the two drugs, cocaine self-administration was reduced. […] Thus, we concluded that combining drugs that affect the HPA axis through different mechanisms can produce an additive effect on cocaine reward. Furthermore, by combining these drugs at concentrations that have no effect when the drugs are administered alone, we can minimize the potential toxic side effects (e.g., excessive decreases in plasma cortisol with metyrapone and the abuse liability of benzodiazepines) that may be associated with these compounds. Accordingly, the compositions of the present invention may include combinations of therapeutic agents, one or both of which are present at a dosage level lower than that which would be required to achieve an effect had the agent been administered alone; the dosages may be additive.

plasma CORT = assay: Plasma CORT radioimmunoassay (Example 1); format: in vivo, Male Wistar rats; conditions: rats before adrenalectomy; any of the doses
Description: (§2) Blood was collected via the implanted catheters at the end of the behavioral test sessions for the measurement of plasma CORT and […] (ACTH). The samples were kept on ice until centrifuged in a refrigerated centrifuge and the plasma collected and frozen until assayed. Plasma CORT and ACTH (ng/ml) were subsequently determined by radioimmunoassay.

ACTH = assay: Plasma ACTH radioimmunoassay (Example 1); format: in vivo, Male Wistar rats; conditions: rats before adrenalectomy; any of the doses
Description: as §2

[4] = tested on: cocaine self-administration in rats; assay: Cocaine self-administration before and after adrenalectomy, alternating schedule of cocaine and food reinforcement (Example 1); format: in vivo, Male Wistar rats; conditions: rats after bilateral adrenalectomy
Description: Male Wistar rats were housed in an AALAC-approved animal care facility and maintained at 85-90% of their free-feeding body weights. These rats were on a reversed 12-hour light, 12-hour dark cycle from the beginning of the experimental procedures.
A chronic indwelling jugular catheter (0.012 in i.d.×0.025 in o.d., silicone tubing) was implanted in each rat under pentobarbital anesthesia (50 mg/kg ip) with methyl atropine nitrate pretreatment (10 mg/kg ip). The animals were injected with sterile penicillin G procaine suspension (75,000 units, im) immediately before surgery and allowed 5-7 days to recover.
Animals were anesthetized with pentobarbital (50 mg/kg ip) with methyl atropine nitrate pretreatment (10 mg/kg ip). The adrenal glands were located through an incision and removed. The animals were injected with sterile penicillin G procaine suspension (75,000 units, im) and allowed to recover from surgery for 7 days. After ADX, the rats received drinking water containing 0.9% saline and 1.0% sucrose. Animals in the SHAM group received the same surgery except that the adrenal glands were not removed. They continued to receive tap water to drink.
Sound-attenuating operant conditioning chambers (Med-Associates, Inc.) were equipped with two response levers and a stimulus light located directly above each lever. A food pellet dispenser was located between the levers. […]

plasma corticosterone = assay: Plasma corticosterone in rats (earlier experiments); format: in vivo, rat; conditions: pretreatment with metyrapone
[5] = tested on: nicotine self-administration in rats; assay: Intravenous nicotine self-administration, fixed-ratio schedule (Example 3); format: in vivo, Wistar-derived male rats; conditions: FR1-TO-20 s; varenicline 1 mg/kg subcutaneously; reduced from 15.4±1.0
Description: Wistar-derived male rats (250-300 g) were purchased from Harlan Laboratories (Livermore, Calif.), housed in groups of two, and maintained in a temperature-controlled environment on a 12 h:12 h light cycle. Before testing, animals were provided free access to food and water during a one-week habituation period, and were handled daily for several days to desensitize them to handling stress. Each rat included in the data analysis received all treatments in order to obtain reliable estimates of drug effects and decrease the impact of inter-animal variability.
Varenicline-HCl (Ontario Chemicals), at 1 mg/kg (expressed as free base), was used as a positive control and administered subcutaneously. Nicotine hydrogen tartrate (Sigma Aldrich) was dissolved in isotonic saline at 0.3 mg/mL (expressed as free base), adjusted to pH 7.0, and diluted to deliver 0.03 mg/kg/infusion. All test compounds were administered 30 minutes prior to nicotine self-administration sessions in a volume of 1 mL/kg.
Food training and nicotine self-administration took place in 8 standard COULBOURN® operant conditioning chambers. Each chamber was housed in a sound-attenuating chamber. Operant chambers were equipped with two levers mounted 2 cm above the floor and a cue light mounted 2 cm above the right lever (active lever) on the back wall of the chamber. […]

smoking cessation = conditions: cited from earlier work

## CC(C)(c1cccnc1)C(O)c1cccnc1 (stereo not shown) [metyrapol]
[1]
  cocaine self-administration: dose dependently decreased
[2]
  food-maintained responding: not significantly affected except at the highest doses

## CC(C)(C(=O)c1cccnc1)c1cccnc1 [metyrapone]
[3]
  ongoing cocaine self-administration: significant dose-related decreases
Plasma CORT
  Corticosterone (plasma): not changed
ACTH
  ACTH (plasma): not changed
[4]
  blocking cocaine self-administration following adrenalectomy compared to pre-adrenalectomy values: as effective, and possibly even more effective
Plasma corticosterone
  plasma corticosterone: significant dose-related decreases

## c1cnc2cc3c(cc2n1)[C@@H]1CNC[C@H]3C1 [varenicline]
[5]
  nicotine infusions during the 1-hour self-administration session: 7.7±1.2 infusions
Smoking cessation; literature reports
  efficacy for smoking cessation compared to either bupropion or nicotine replacement therapy: increased efficacy
Smoking cessation; smoking cessation, Nides et al. 2006
  quit rates after one year: 14%
